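All cell lines were grown in 96-well plates and treated with compound for 48 hours. Definition used: TGI = concentration required for complete inhibition of growth.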
How the values were obtained:
Assay in all cases: growth of human tumour cells (NCI), 48 h
M19-MEL melanoma = test system: M19-MEL melanoma
HOP-18 NSCLC = test system: HOP-18 NSCLC
OVCAR-4 ovarian = test system: OVCAR-4 ovarian
SNB-78 CNS = test system: SNB-78 CNS
SN12K1 renal = test system: SN12K1 renal
DLD-1 colon = test system: DLD-1 colon
XF 498 CNS = test system: XF 498 CNS
HT29 colon = test system: HT29 colon
KM20L2 colon = test system: KM20L2 colon
NCI/ADR-RES ovarian = test system: NCI/ADR-RES ovarian
CAKI-1 renal = test system: CAKI-1 renal
DMS 273 small cell lung = test system: DMS 273 small cell lung
DMS 114 small cell lung = test system: DMS 114 small cell lung
T-47D breast = test system: T-47D breast

| Structure (SMILES) | TGI (M19-MEL melanoma) [µM] | TGI (HOP-18 NSCLC) [µM] | TGI (OVCAR-4 ovarian) [µM] | TGI (SNB-78 CNS) [µM] | TGI (SN12K1 renal) [µM] | TGI (DLD-1 colon) [µM] | TGI (XF 498 CNS) [µM] | TGI (HT29 colon) [µM] | TGI (KM20L2 colon) [µM] | TGI (NCI/ADR-RES ovarian) [µM] | TGI (CAKI-1 renal) [µM] | TGI (DMS 273 small cell lung) [µM] | TGI (DMS 114 small cell lung) [µM] | TGI (T-47D breast) [µM] |
| --- | --- | --- | --- | --- | --- | --- | --- | --- | --- | --- | --- | --- | --- | --- |
| CCOC(=O)c1cc(Cl)ccc1OC(N)=O | > 100 | > 100 | > 100 | > 100 | > 100 | > 100 | > 100 | > 100 | > 100 | > 100 | > 100 | > 100 | > 100 | – |
| CCCC[Si](CCCC)(CCCC)O[C@@H](/C=C/C(=O)OCC)[C@H](Cc1ccccc1)O[Si](CCCC)(CCCC)CCCC | – | – | > 100 | – | – | – | – | > 100 | – | > 100 | > 100 | – | – | > 100 |
| O=c1[nH][nH]c(=S)c(=O)[nH]1 | – | – | > 100 | – | – | – | – | > 100 | – | > 100 | > 100 | – | – | > 100 |
| O=C1C(c2c(O)[nH]c3ccc(S(=O)(=O)N(CCO)CCO)cc23)=Nc2ccccc21 | – | – | > 100 | – | – | – | – | > 100 | – | > 100 | > 100 | – | – | 20.3 |
| Clc1ccc(CSCc2ccc(Cl)cc2Cl)c(Cl)c1 | – | – | > 100 | – | – | – | – | > 100 | – | > 100 | > 100 | – | – | > 100 |
| Cc1ccc(S(=O)(=O)N/N=C2/CC[C@H](C(C)(C)C)C[C@@H]2C)cc1 | – | – | 20 | – | – | – | – | 30.7 | – | 31.2 | 26.3 | – | – | 25.5 |
| CC1(c2nc3cc(Cl)c(Cl)cc3[nH]2)CCC(C(=O)O)C(C)(C)O1 (stereo not drawn) | – | – | > 100 | – | – | – | – | > 100 | – | > 100 | > 100 | – | – | > 100 |
| Cc1ccc2nc(Cl)c(/C=N/N3C(=O)/C(=C/Cc4ccco4)N=C3c3ccccc3)cc2c1 | – | – | > 100 | – | – | – | – | > 79.4 | – | > 90.5 | > 100 | – | – | > 100 |
| COc1ccc(C2Oc3c(cccc3OC)C=C2[N+](=O)[O-])cc1 (stereo not drawn) | – | – | 10.1 | – | – | – | – | 4.59 | – | 14.5 | 4.31 | – | – | 27.7 |
